# Reference: PMC4224963 (ChemMedChem, 2014)
# How the values were obtained:
# human NAAA [1] = target: T1, human NAAA (Homo sapiens, UniProt Q02083); assay: Fluorogenic h-NAAA assay; format: biochemical
# T1 sequence (Q02083 126-359 limits assumed): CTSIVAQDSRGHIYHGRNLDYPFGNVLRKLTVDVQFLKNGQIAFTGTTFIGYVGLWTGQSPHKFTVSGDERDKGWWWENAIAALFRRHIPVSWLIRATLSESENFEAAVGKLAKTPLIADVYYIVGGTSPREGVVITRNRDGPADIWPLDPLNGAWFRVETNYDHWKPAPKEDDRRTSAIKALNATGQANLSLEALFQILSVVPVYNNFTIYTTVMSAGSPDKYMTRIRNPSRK
# T1 sequence (Q02083 29-125 limits assumed): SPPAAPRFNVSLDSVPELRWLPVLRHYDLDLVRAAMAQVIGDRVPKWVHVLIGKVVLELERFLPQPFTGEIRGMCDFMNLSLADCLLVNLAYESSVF
# [2] = In vitro mouse plasma stability; format: in vitro ADME
# rat-NAAA (r-NAAA) = settings: read-out: r-NAAA IC50; ref 19a, 19c, 19d, 19f; cited from earlier work
# [3] = In vitro rat plasma stability; format: in vitro ADME
# human NAAA [4] = target: T2, human NAAA (Homo sapiens, UniProt Q02083); assay: h-NAAA inhibition, UPLC-MS-based assay; format: biochemical; settings: for IC50: h–NAAA IC50 (μM) ± SD, LC/MS method, mean of three or more determinations
# T2 sequence (Q02083 29-359): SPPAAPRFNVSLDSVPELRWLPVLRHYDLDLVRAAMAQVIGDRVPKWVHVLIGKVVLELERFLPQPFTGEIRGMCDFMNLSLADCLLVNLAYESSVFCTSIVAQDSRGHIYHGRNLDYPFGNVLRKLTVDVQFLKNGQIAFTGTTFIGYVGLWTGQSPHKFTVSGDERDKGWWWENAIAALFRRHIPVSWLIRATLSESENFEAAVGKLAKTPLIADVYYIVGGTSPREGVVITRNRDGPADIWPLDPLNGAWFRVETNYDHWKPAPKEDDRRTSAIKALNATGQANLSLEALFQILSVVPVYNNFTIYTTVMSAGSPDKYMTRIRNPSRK
# [5] = Plasma pharmacokinetics in rats after IV or oral dosing; format: in vivo; settings: rat
# human AC = target: T3, human AC (Homo sapiens, UniProt Q13510); assay: h-AC inhibition, UPLC-MS-based assay; format: biochemical; settings: for IC50: h–AC IC50 (μM) ± SD, LC/MS method, mean of three or more determinations
# T3 sequence (Q13510 22-395): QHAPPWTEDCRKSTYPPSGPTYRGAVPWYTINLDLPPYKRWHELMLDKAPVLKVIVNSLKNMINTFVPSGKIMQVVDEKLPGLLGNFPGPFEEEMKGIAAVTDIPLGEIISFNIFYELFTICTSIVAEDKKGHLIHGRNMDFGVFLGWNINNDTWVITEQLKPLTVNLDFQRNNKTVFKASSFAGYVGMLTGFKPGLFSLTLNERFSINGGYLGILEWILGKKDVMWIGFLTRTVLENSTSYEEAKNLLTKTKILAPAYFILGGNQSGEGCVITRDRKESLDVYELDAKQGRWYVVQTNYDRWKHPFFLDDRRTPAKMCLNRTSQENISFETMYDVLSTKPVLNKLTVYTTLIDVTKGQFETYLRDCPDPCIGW
# human FAAH = target: T4, human FAAH (Homo sapiens, UniProt O00519); assay: h-FAAH inhibition; format: biochemical; settings: read-out: h–FAAH (% Inhib)
# T4 sequence (O00519 1-579): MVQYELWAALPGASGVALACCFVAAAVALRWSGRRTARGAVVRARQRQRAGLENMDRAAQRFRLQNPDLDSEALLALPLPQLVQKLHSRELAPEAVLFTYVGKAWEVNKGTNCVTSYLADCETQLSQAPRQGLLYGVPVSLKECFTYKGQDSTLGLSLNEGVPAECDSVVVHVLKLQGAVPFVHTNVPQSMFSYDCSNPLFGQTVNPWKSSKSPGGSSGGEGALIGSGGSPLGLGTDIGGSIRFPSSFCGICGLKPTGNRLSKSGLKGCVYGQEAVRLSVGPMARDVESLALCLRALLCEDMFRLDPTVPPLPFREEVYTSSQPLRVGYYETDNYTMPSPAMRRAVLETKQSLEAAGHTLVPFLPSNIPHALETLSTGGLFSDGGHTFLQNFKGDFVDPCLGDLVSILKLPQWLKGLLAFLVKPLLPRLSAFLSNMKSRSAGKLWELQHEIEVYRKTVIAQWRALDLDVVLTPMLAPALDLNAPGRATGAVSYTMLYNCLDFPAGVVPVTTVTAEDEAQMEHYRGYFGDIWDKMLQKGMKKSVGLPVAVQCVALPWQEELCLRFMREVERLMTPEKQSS
compound,measurement,setting,value
"O=C(CCc1ccccc1)N[C@H]1COC1=O [Compound 1, (S)–N–(2–oxo–3–oxetanyl)–3–phenylpropionamide, reference compound]",IC50,human NAAA [1],1.29 µM
same,half-life at 2 µM,[2],< 0.0167 h
same,IC50,rat-NAAA (r-NAAA),0.42 µM
"C[C@@H]1OC(=O)[C@@H]1NC(=O)OCCCCCc1ccccc1 [Compound 2, 5–phenylpentyl N–[(2S,3R)–2–methyl–4–oxo–oxetan–3–yl]carbamate, reference compound]",IC50,human NAAA [1],0.047 ± 0.005 µM
same,IC50,rat-NAAA (r-NAAA),0.05 µM
"O=C(CCc1ccccc1)N[C@H]1CNC1=O [Compound 11a, 3–Phenyl–N–[(S)–2-oxoazetidin–3–yl]–propanamide]",half-life at […],[3],> 2 h
same,half-life at 2 µM,[2],> 2 h
"O=C(CCCc1ccccc1)N[C@H]1CNC1=O [Compound 11b, N–[(S)–2-Oxoazetidin–3–yl]–4–phenyl–butanamide]",IC50,human NAAA [1],73.4 ± 10.7 µM
"O=C(CCCCc1ccccc1)N[C@H]1CNC1=O [Compound 11c, 5–Phenyl–N–[(S)–2–oxoazetidin–3–yl]–pentanamide]",IC50,human NAAA [1],27.2 ± 1.89 µM
"O=C(CCCCCc1ccccc1)N[C@H]1CNC1=O [Compound 11d, N–[(S)–2–Oxoazetidin–3–yl]–6–phenyl–hexanamide]",IC50,human NAAA [1],12.1 ± 2.18 µM
"O=C(CCCCCCc1ccccc1)N[C@H]1CNC1=O [Compound 11e, 7–Phenyl–N–[(S)–2–oxoazetidin–3–yl]–heptanamide]",IC50,human NAAA [1],0.6 ± 0.17 µM
"CCCCCCC(=O)N[C@H]1CNC1=O [Compound 11f, N–[(S)–2–Oxoazetidin–3–yl]–heptanamide]",IC50,human NAAA [1],27 ± 6.15 µM
same,drop in potency (h-NAAA) compared to 11e,human NAAA [1]; fluorogenic assay,> 40 fold
"CCCCCCCC(=O)N[C@H]1CNC1=O [Compound 11g, N–[(S)–2–Oxoazetidin–3–yl]–octanamide]",IC50,human NAAA [1],1.91 ± 0.28 µM
"CCCCCCCCC(=O)N[C@H]1CNC1=O [Compound 11h, N–[(S)–2–Oxoazetidin–3–yl]–nonanamide]",IC50,human NAAA [4],0.13 ± 0.03 µM
same,half-life at […],[3],> 2 h
same,half-life at 2 µM,[2],1.72 h
same,AUC,"[5]; iv, 3 mg/kg",111 ng·h/mL
same,Cmax,"[5]; iv, 3 mg/kg",397 ng/mL
same,Tmax,"[5]; iv, 3 mg/kg",4.8 min
same,clearance,"[5]; iv, 3 mg/kg",702 mL/min/kg
same,AUC,"[5]; po, 10 mg/kg",247 ng·h/mL
same,Cmax,"[5]; po, 10 mg/kg",570 ng/mL
same,selectivity for NAAA vs. AC,"human AC; h-AC IC50 / h-NAAA IC50, LC/MS assays",ca. 19 fold
same,IC50,human AC,2.53 ± 0.06 µM
same,inhibition at 100 µM,human FAAH,< 10%
"CCCCC/C=C/CC(=O)N[C@H]1CNC1=O [Compound 11i, (E)–N–[(S)–2–Oxoazetidin–3–yl]–non–3–enamide]",IC50,human NAAA [1],3.09 ± 0.5 µM
same,loss/drop in potency (h-NAAA) compared to 11h,human NAAA [1]; fluorogenic assay,10 fold
"CCCCC/C=C\CC(=O)N[C@H]1CNC1=O [Compound 11j, (Z)–N–[(S)–2–Oxoazetidin–3–yl]–non–3–enamide]",IC50,human NAAA [1],3.9 ± 0.86 µM
same,loss/drop in potency (h-NAAA) compared to 11h,human NAAA [1]; fluorogenic assay,10 fold
"CCCCc1ccc(C(=O)N[C@H]2CNC2=O)cc1 [Compound 11k, 4–Butyl–N–[(S)–2–oxoazetidin–3–yl]–benzamide]",IC50,human NAAA [1],13.8 ± 3.41 µM
"CCCCCCCCCCC(=O)N[C@H]1CNC1=O [Compound 11p, N–[(S)–2–Oxoazetidin–3–yl]–undecanamide]",increase in potency toward h–NAAA compared to 11h,human NAAA [4]; LC/MS assay,ca. 2 fold
same,IC50,human NAAA [4],0.056 ± 0.01 µM
same,increase in potency toward h–AC compared to 11h,human AC; LC/MS assay,ca. 7 fold
same,IC50,human AC,0.33 ± 0.1 µM
same,inhibition at 100 µM,human FAAH,< 10%
"CCCCCCCCC(=O)N[C@@H]1CNC1=O [Compound 12h, N–[(R)–2–Oxoazetidin–3–yl]–nonanamide]",IC50,human NAAA [4],45.5 µM
same,IC50,human NAAA [1],74.5 ± 9.08 µM
same,loss/drop in potency (h-NAAA) compared to 11h,human NAAA [1]; fluorogenic assay,> 200 fold
same,IC50,human AC,27.8 µM
same,inhibition at 100 µM,human FAAH,< 10%
"CCCCCCCNC(=O)N[C@H]1CNC1=O [Compound 33, 1–Heptyl–3–[(S)–2–oxoazetidin–3–yl]–urea]",IC50,human NAAA [1],5.76 ± 0.9 µM
